How the values were obtained:
[1] = tested on: carrageenan paw edema (acute inflammatory response) in Sprague-Dawley rats; experiment: rat carrageenan paw edema assay; format: in vivo, rat (Sprague-Dawley); conditions: for % Inhibition (peroral) of paw edema: 1 hour before carrageenan, 3 hours
Description: The compounds of the invention are further tested in the rat carrageenan paw edema assay to determine their ability to inhibit the acute inflammatory response. This assay is carried out as follows: 140-180 gm mal Sprague-Dawley rats, in groups of 6 animals are injected subcutaneously in the right paw with 0.1 ml of 1% carrageenan at zero time. Mercury plethysmographic readings (ml) of the paw are made at zero time and 3 hours later. Test compounds are suspended or dissolved in 0.5% methycellulose and given perorally 1 hour prior to carrageenan administration. The increase in paw volume (edema in ml.) produced by the carrageenan is measured. […] Unpaired Student's t-test is used to determine statistical significance.

[2] = tested on: adjuvant-induced polyarthritis in Sprague-Dawley rats; experiment: adjuvant arthritis assay; format: in vivo, rat (Sprague-Dawley); conditions: oral dose 30 mg/kg
[3] = tested on: LTB4 synthesis by rat polymorphonuclear leukocytes (lipoxygenase); experiment: inhibition of LTB4 synthesis by rat glycogen-elicited polymorphonuclear leukocytes (PMN); format: cell-based, rat (female Wistar)
Description: This is especially true with respect to 5,12-diHETE, which is also denoted as LTB4 [See Ford-Hitchinson, J. Roy. Soc. Med., 74, 831 (1981)]. The assay of this Example measures the ability of the compounds of the invention to inhibit the synthesis of LTB4 by rat glycogenelicited polymorphonuclear leukocytes (PMN).
The assay is carried out as follows:
Rat polymorphonuclear leukocytes (PMNs) are obtained from female Wistar rats (150-200 g) which receive an injection of 6% glycogen (10 ml i.p.). Rats are sacrificed 18-24 hours post injection by CO2 asphyxiation and the elicited cells are harvested by peritoneal lavage using physiological saline (0.9% NaCl). The exudate is centrifuged at 400 x g for 10 minutes. The supernatant fluid is discarded and the cell pellet is resuspended to a concentration of 2.0×10^7 cells/ml in HBSS containing Ca^++ and Mg^++ and 10 μM L-cysteine.
To 1 ml aliquots of cell suspension, test drugs or vehicle are added, then preincubated at 37° C. for 10 minutes. […] Supernatants are then analyzed by HPLC analysis on a 15 cm×4.6 mm ID Supelcosil LC-18 (Supelco)(3M) column, using a two solvent system at a flow rate of 1.4 ml total flow as follows: […]
Injections: 150 μl of each supernatant is injected directly onto column and ^3 H arachidonic acid metabolites are monitored using an on-line radioactivity detector (Ramona, IN/US, Fairfield, NJ). […]

CC(=NNC(=N)N)c1cccc(OCc2ccc3ccccc3c2)c1 [Example 1, 2-[1-[3-(2-Naphthalenylmethoxy)phenyl]ethylidene]-hydrazinecarboximidamide,0.1 hydrate]
% Inhibition (peroral) of paw edema ([1]; at 50 mg/kg peroral): 42%
% Change of Right Paw Edema at Day 4 ([2]; day 4): 50%
% Change of Left Paw Edema at Day 16 ([2]; day 16): 31%

COc1ccc2c(c1)c(CC(=O)O)c(C)n2C(=O)c1ccc(Cl)cc1 [Indomethacin, reference compound]
ED50 ([1]; Rattus norvegicus, po, 3 h, read-out: Oral ED50 (95% C.L.) mg/kg): 3.7 mg/kg

CC(=NNC(=N)N)c1cccc(OCc2ccc3ccccc3n2)c1 [Example 2, 2-[1-[3-(2-Quinolinylmethoxy)phenyl]ethylidene]hydrazinecarboximidamide]
>50% Inhibitory at 50 μm (LTB4 synthesis) [3]: + (those compounds having an inhibition of >50%)
% Inhibition (peroral) of paw edema ([1]; at 100 mg/kg peroral): 43%
